Data: patent publication US9737516B2, “Bicyclic heterocycles as bet protein inhibitors” (Incyte Corporation, priority 2013, dated 2017)
pIC50: −log10 of the molar value.

What was measured:
BRD4-BD1 = BRD4-BD1 (Homo sapiens (Human), UniProt O60885); experiment: BRD4 AlphaScreen assay (BRD4-BD1); assay type: binding; conditions: H4Ac4 peptide, 3.8 nM BRD4-BD1, read-out: BRD4 BD-1 enzyme IC50
Method: (§1) BRD4-BD1 and BRD4-BD2 assays were conducted in white 384-well polystyrene plate in a final volume of 20 μL for BD1 and 40 μL for BD2. Inhibitors were first serially diluted in DMSO and added to the plate wells before the addition of other reaction components. The final concentration of DMSO in the assay was 1.25% (BD1) and 0.83% (BD2). The assays were carried out at room temperature for 75 min. in the assay buffer (50 mM HEPES, pH 7.4, 100 mM NaCl, 0.05% CHAPS, 0.01% BSA), containing 50 nM Biotin-labeled tetra-acetylated histone H4 peptide (H4Ac4), 3.8 nM (BRD4-BD1, BPS Bioscience #31040) or 20 nM (BRD4-BD2, BPS Bioscience #31041). The reaction followed by the addition of 20 μL of assay buffer supplemented with Streptavidin donor beads (PerkinElmer 6760002) and GSH Acceptor beads (PerkinElmer-AL109C) at 4 µg/mL under reduced light. After plate sealing, the plate was incubated in the dark at room temperature for 75 min. before reading on a PHERAstar FS plate reader (BMG Labtech). IC50 determination was performed by fitting the curve of percent control activity versus the log of the inhibitor concentration using the GraphPad Prism 5.0 software. IC50 data for the Examples is presented in Table 1 as determined by Assay A1.

BRD4-BD2 = BRD4-BD2 (Homo sapiens (Human), UniProt O60885); experiment: BRD4 AlphaScreen assay (BRD4-BD2); assay type: binding; conditions: H4Ac4 peptide, 20 nM BRD4-BD2, read-out: BRD4 BD-2 enzyme IC50
Method: as §1

KMS.12.BM cells = experiment: KMS.12.BM cell viability assay (ATP quantitation, Cell Titer-GLO); assay type: cell-based; conditions: Homo sapiens, 72 h, 3 days, concentration required for 50% cell death, read-out: KMS cellular IC50
Method: KMS.12.BM cell line (human myeloma) was purchased from JCRB (Osaka, Japan) and maintained in RPMI with 10% FBS culture medium. To measure the cytotoxic activity of the compounds through ATP quantitation, the KMS.12.BM cells are plated in the RPMI culture medium at 5000 cells/well/per 100 μL into a 96-well polystyrene clear black tissue culture plate (Greiner-bio-one through VWR, NJ), in the presence or absence of a concentration range of test compounds. After 3 days, […] Cell Titer-GLO Luminescent (Promega, Madison, Wis.) cell culture agent is added to each well for 10 minutes at room temperature to stabilize the luminescent signal. This determines the number of viable cells in culture based on quantitation of the ATP present, which signals the presence of metabolically active cells. Luminescence is measured with the Top Count 384 (Packard Bioscience through Perkin Elmer, Boston, Mass.). Compound inhibition is determined relative to cells cultured with no drug and the IC50 is reported as the compound concentration required for 50% cell death. IC50 data for the Examples is presented in Table 2 as determined by Assay B1.

C-myc in KMS.12.BM cells = experiment: KMS.12.BM C-myc ELISA assay; assay type: cell-based; conditions: Homo sapiens, 2 hours
Method: KMS.12.BM cell line (human myeloma) was purchased from JCRB (Osaka, Japan) and maintained in RPMI with 10% FBS culture medium. To measure the C-myc inhibitory activity of the compounds, the KMS.12.BM cells are plated in the RPMI culture medium at 75000 cells/well/per 200 μL into a 96-well flat bottom polystyrene tissue culture plate (Corning through VWR, N.J.), in the presence or absence of a concentration range of test compounds. After 2 hours, cell are pelleted and lysed with Cell Extraction Buffer (BioSource, Carlsbad, Calif.) in the presence of protease inhibitors (Life Technologies, Grand Island, N.Y. and Sigma, St Louis, Mo.). Clarified lyses are tested in a C-myc commercial ELISA (Life Technologies, Grand Island, N.Y.). Compound inhibition is determined relative to cells cultured with no drug and the IC50 is reported as the compound concentration required for 50% C-myc inhibition. IC50 data for the Examples is presented in Table 3 as determined by Assay C1.

| SMILES | pIC50 (BRD4-BD1) | pIC50 (BRD4-BD2) | pIC50 (KMS.12.BM cells) | pIC50 (C-myc in KMS.12.BM cells) |
| --- | --- | --- | --- | --- |
| Cn1cc(-c2cc3ncn(C)c3cc2Oc2ccc(F)cc2F)c2cc[nH]c2c1=O [Example 3, 4-[6-(2,4-Difluorophenoxy)-1-methyl-1H-benzimidazol-5-yl]-6-methyl-1,6-dihydro-7H-pyrrolo[2,3-c]pyridin-7-one] | ≥ 7.00 | ≥ 7.00 | ≥ 6.00 | ≥ 6.00 |
| CCn1cnc2cc(-c3cn(C)c(=O)c4[nH]ccc34)c(OCC3CCC3)cc21 [Example 13, 4-[6-(Cyclobutylmethoxy)-1-ethyl-1H-benzimidazol-5-yl]-6-methyl-1,6-dihydro-7H-pyrrolo[2,3-c]pyridin-7-one] | ≥ 7.00 | ≥ 7.00 | ≥ 6.00 | ≥ 6.00 |
